The values that follow come from PMC7312527 (International Journal of Molecular Sciences, 2020).

Where “and” joins values, the source holds several entries; their conditions need not be identical. Identical values can stand only once.

Data set [1] concerns the target AChE from electric eel (Electrophorus electricus, UniProt O42275). Briefly: biochemical. Particulars: for Selectivity for AChE: IC50 (BuChE)/IC50(AChE); for IC50: means ± SD of three independent experiments, read-out: EeAChE IC50 ± SD.
The target of data set [2] is BuChE from equine serum (Equus caballus, UniProt P81908). Briefly: biochemical. Particulars: for Selectivity for BuChE: IC50(AChE)/IC50(BuChE); for IC50: means ± SD of three independent experiments, read-out: EqBuChE IC50 ± SD.
Chain of BuChE from equine serum (P81908 whole entry): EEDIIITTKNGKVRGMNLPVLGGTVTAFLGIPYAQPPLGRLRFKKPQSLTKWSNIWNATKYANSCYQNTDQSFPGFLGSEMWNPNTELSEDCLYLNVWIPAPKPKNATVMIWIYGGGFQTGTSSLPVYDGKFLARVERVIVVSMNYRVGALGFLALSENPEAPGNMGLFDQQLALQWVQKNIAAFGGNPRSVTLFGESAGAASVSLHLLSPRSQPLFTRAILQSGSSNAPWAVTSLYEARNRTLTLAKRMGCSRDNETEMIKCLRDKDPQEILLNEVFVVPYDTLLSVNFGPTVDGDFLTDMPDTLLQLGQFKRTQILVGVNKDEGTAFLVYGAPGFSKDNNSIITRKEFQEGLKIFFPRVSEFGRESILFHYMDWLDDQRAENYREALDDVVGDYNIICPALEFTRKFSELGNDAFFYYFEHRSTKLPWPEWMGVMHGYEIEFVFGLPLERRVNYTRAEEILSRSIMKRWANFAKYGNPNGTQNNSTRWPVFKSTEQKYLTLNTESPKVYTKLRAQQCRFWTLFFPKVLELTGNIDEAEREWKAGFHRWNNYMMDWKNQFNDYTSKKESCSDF
Data set [3] relates to SH-SY5Y cells. In words: Neuroprotection against oxidative stress induced by H2O2 (MTT). To be noted: H2O2 100 µM. The data set is classed as cell-based, human.
Data set [4] deals with SH-SY5Y cells. Briefly: Neuroprotection against rotenone/oligomycin A, pre-incubation (MTT). The data set is classed as cell-based, human. To be noted: R/O mixture, 0.001 µM.
The test system of data set [5] is SH-SY5Y cells. Briefly: Neuroprotection against rotenone/oligomycin A, co-incubation (MTT). The data set is classed as cell-based, human. To be noted: R/O mixture.
A short description of data set [6]: in vitro. The data set is classed as cell-based. To be noted: human. The protocol: (§1) Human hepatic stellate cells (HSCs, Sciencell) were cultured in the Stellate Cell Medium (Sciencell) with 1% Stellate Cell Growth Supplement, 2% fetal bovine serum (FBS), and 1% penicillin/streptomycin solution (Sciencell). Cells were kept in the incubator (37 °C, 5% CO2). At the beginning of the experiment, cells were seeded in the 96-well plates at a density of 5 × 10^3 cells per well and incubated in the incubator for 24 h. After the incubation period, medium was removed and HSCs were exposed to 100 µL of the compound solutions over a range of concentrations (10–0.1 µM) or nothing but culture medium (blank control). Cells were further incubated for 24 h. At the end, medium was removed, cells were washed with PBS, and 50 µL of the MTT solution (0.75 mg/mL) was added to the cells. Plates were kept in the dark for 2 h at 37 °C. Finally, the MTT solution was removed and 100 µL of DMSO was added to each well. Plates with DMSO were kept at room temperature for 10 min. After this time, 5 µL of Sorensen Buffer was added to each well. Plates were swayed and the absorbance was measured at a wavelength of 570 nm by a microplate reader (Synergy H1, BioTek). The cell viability was expressed as a percentage of the control values (blank control).

Data set [7] relates to Human hepatic stellate cells (HSCs). In words: in vitro. The data set is classed as cell-based. Particulars: HSCs, 24 h. The method, then:
as §1

For data set [8] the following is noted: Experimental Properties; cited from earlier work.
In data set [9] the target is T1, hyaluronidase (Bos taurus, UniProt Q2YDK3).
T1 sequence (Q2YDK3 36-553): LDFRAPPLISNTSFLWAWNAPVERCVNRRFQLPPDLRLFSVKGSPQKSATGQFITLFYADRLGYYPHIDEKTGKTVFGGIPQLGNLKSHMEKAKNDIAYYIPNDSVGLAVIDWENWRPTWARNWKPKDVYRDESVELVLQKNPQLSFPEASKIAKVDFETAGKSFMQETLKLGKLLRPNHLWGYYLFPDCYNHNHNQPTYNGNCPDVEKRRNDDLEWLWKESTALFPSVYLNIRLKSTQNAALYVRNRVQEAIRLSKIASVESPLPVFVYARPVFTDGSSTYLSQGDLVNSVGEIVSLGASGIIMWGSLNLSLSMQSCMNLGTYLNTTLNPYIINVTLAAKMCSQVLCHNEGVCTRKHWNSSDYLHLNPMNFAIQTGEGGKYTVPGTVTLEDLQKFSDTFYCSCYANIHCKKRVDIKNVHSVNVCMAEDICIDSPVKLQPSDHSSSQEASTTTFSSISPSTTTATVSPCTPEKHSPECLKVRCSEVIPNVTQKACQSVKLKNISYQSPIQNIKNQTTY
Briefly: Hyaluronidase (HYAL) inhibition test (turbidimetry). The data set is classed as biochemical. The protocol:
The hyaluronidase inhibition assay was set by turbidimetry according to USP XXII-NF XVII, modified by Piwowarski, to the 96-wells plates test. Tested compound solutions were freshly prepared before the assay. The protocol started with the addition of 20 µL of the tested compound in monosodium phosphate buffer and 40 µL of hyaluronidase solution (22.5 U/mL, Sigma Aldrich) to each well. The plate was kept in the dark (10 min, 37 °C). In the next step, 40 µL of hyaluronic acid solution (0.03%, Sigma Aldrich) in monosodium phosphate buffer was added to the wells and the plate was incubated again (45 min, 37 °C). Finally, 300 µL of bovine serum albumin (0.1%, Serva) in sodium acetate buffer was added to the wells and the mixture was kept at room temperature for 10 min. The assay was carried out in triplicate. Changes in turbidity were measured by a microplate reader (BioTek, Winooski, VT, USA) at 600 nm. Heparin (WZF, Polfa, Warszawa, Poland) was the positive control. The inhibitory activity of the tested compound was calculated from the Equation (1):(1) % inhibition=100x1−AHA−AAN/AHA−AHYAL where AHA is the absorbance of solution without the enzyme (positive control), AHYAL is the absorbance of solution without the tested compound (negative control), and AAN is the absorbance of solution with the tested compound.

For data set [10] the following is noted: Experimental Properties; cited from earlier work. This is another data set of the same source.

Chain of AChE from electric eel (O42275 24-633): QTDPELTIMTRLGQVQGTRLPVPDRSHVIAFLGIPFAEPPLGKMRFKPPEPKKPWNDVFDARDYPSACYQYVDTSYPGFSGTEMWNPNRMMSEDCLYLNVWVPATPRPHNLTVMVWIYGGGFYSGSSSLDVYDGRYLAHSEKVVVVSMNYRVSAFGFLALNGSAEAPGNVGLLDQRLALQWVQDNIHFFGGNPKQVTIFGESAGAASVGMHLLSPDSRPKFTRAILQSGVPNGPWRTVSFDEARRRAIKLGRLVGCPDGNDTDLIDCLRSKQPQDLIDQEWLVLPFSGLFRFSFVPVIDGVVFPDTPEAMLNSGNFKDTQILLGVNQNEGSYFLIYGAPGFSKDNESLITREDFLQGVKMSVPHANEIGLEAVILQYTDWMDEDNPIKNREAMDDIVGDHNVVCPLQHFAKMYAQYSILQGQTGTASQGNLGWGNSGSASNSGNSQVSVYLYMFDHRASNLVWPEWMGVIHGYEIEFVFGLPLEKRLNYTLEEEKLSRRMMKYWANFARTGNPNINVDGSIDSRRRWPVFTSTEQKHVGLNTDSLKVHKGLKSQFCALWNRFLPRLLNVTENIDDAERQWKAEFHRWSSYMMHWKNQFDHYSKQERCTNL

Turning to `O=C(NCCCCCCCCNc1c2c(nc3ccccc13)CCCC2)c1cc(Cl)cc(Cl)c1` [Compound 3g], in data set [1], the “Selectivity for AChE” value is reported as 0.634 and the IC50 – broadly, the concentration needed to halve the response being measured – amounted to 958 ± 36 nM. Further, in [2], the “Selectivity for BuChE” value stood at 1.577 and the IC50 is 607 ± 20 nM.
On to `O=C(NCCCCCNc1c2c(nc3ccccc13)CCCC2)c1cc(Cl)cc(Cl)c1` [Compound 3d], for which the IC50 in data set [1] was > 12000 nM and 12400 nM; in data set [2], more than 20000 nM.
Turning to `Cc1c(C)c2c(c(C)c1O)CCC(C)(C(=O)O)O2` (centres unmarked) [Trolox, reference compound], the neuroprotection in [3] (compound 0.01 µM) came out at 77.16%; in data set [3] (compound 0.1 µM), 91.22%; in data set [3] (compound 1 µM), 96.03%; in [3] (compound 10 µM), 95.05%; in data set [4] it was 2.15%; in data set [5] (0.001 µM) it was 5.60%. Also, the neuroprotection in data set [5] (0.01 µM) is 4.67%.
As for `O=C(NCCCCCCCCCNc1c2c(nc3ccccc13)CCCC2)c1cc(Cl)cc(Cl)c1` [Compound 3h], in data set [1], the “Selectivity for AChE” value turned out to be 2.914 and the IC50 amounted to 111 ± 4 nM. In [2], the “Selectivity for BuChE” value is given as 0.343 and the 50% inhibitory concentration (IC50) was 324 ± 47 nM.
As to `O=C(NCCCCCCNc1c2c(nc3ccccc13)CCCC2)c1cc(Cl)cc(Cl)c1` [Compound 3e], the IC50 in [1] and in data set [2] was more than 20000 nM in each case.
As for `Nc1c2c(nc3ccccc13)CCCC2` [Tacrine, reference compound], the viability (in general, a per cent measure of how many cells are alive, often set against a control) at 24 h, 10 µM in data set [6] amounted to 90.3%. Further, the “hepatotoxicity (MTT; cell viability as percentage of control)” value in data set [7] (0.1 µM) is reported as 100.67% ± 1.03%; in data set [7] (1 µM), 99.48% ± 0.74%.
`CC(CN1c2ccccc2Sc2ccccc21)N(C)C.Cl` (centres unmarked) [Prometazine HCl]: the pKa (commonly the negative logarithm of the acid dissociation constant) in [8] is 9.1 [52].
Molecule Heparin [positive control] displayed a concentration for half-maximal inhibition (IC50) in data set [9] of 56400 ± 780 nM.
Take `O=C(NCCCCCCCNc1c2c(nc3ccccc13)CCCC2)c1cc(Cl)cc(Cl)c1` [Compound 3f]: in [1], the “Selectivity for AChE” value is 0.289 and the IC50 is 115 ± 12 nM. In addition, in data set [2], the “Selectivity for BuChE” value is reported as 3.457 and the IC50 was determined as 33 ± 6 nM.
As to `CSc1ccc2c(c1)N(CCC1CCCCN1C)c1ccccc1S2.Cl` (centres unmarked) [Thiorydazine HCl], in data set [10], the logP – broadly, a log measure of how a compound divides between an organic and an aqueous phase – is recorded as 5.9. Further, the pKa in data set [8] is 9.5 [54].
`Cl.O=C(NCCNc1c2c(nc3ccccc13)CCCC2)c1cc(Cl)cc(Cl)c1` [Compound 3a]: in data set [1], the “Selectivity for AChE” value is on record as 0.203 and the IC50 is 690 ± 108 nM. Also, in data set [2], the “Selectivity for BuChE” value turned out to be 4.935 and the IC50 amounted to 140 ± 12 nM.
For `O=C(NCCCNc1c2c(nc3ccccc13)CCCC2)c1cc(Cl)cc(Cl)c1` [Compound 3b] the same measures were 0.174, 139 ± 5 nM, 5.756 and 24 ± 1 nM.
